From patent publication US10723741B1, “DNA polymerase IIIC inhibitors and use thereof” (Acurx Pharmaceuticals, LLC, priority 2018, dated 2020)
Converted amounts (≈) assume the structure as drawn. Read-outs that look alike come from different tables or passages of the source.

Legend:
Assay type in all cases: cell-based
[1] = tested on: Staphylococcus aureus ATCC 29213 (MSSA); experiment: Broth microdilution MIC, S. aureus ATCC 29213 (MSSA); conditions: broth microdilution, 37° C., 20 hours, read-out: MIC S. aureus ATCC 29213 (MSSA)
How it was run: (§1)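 Two-fold dilutions from 64 to 0.0625 μg/ml final, 1% DMSO, were inoculated at ~5.0×10^5 cfu/ml in the strain's test medium and kept 20 h at 37 °C in ambient atmosphere. Colonies were grown on MHA, with S. pneumoniae on blood agar under 5% CO2.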

[2] = tested on: Streptococcus pneumoniae ATCC 49619; experiment: Broth microdilution MIC, S. pneumoniae ATCC 49619; conditions: ATCC49619, broth microdilution, 37° C., 20 hours, read-out: MIC S. pneumoniae ATCC 49619
How it was run: as §1

[3] = tested on: Escherichia coli ATCC 25922; experiment: Broth microdilution MIC, E. coli ATCC 25922 (MHIIB w & w/o 4 mM EDTA); conditions: broth microdilution, 37° C., 20 hours; for MIC: Escherichia coli, ATCC25922, without EDTA, read-out: MIC E. coli ATCC 25922; for MIC E. coli ATCC 25922 + 4 mM EDTA: with 4 mM EDTA
How it was run: as §1

[4] = tested on: Staphylococcus aureus NRS384 (MRSA); experiment: Broth microdilution MIC, S. aureus NRS384 (MRSA); set-up: MIC NRS 384 (MRSA): unit not given here; conditions: broth microdilution, 37° C., 20 hours; for MIC: Staphylococcus aureus, read-out: MIC NRS 384 (MRSA)
How it was run: as §1

[5] = tested on: Bacillus subtilis ATCC 6633; experiment: Broth microdilution MIC, B. subtilis ATCC 6633; conditions: ATCC6633, broth microdilution, 37° C., 20 hours, read-out: MIC B. subtilis ATCC 6633
How it was run: as §1

[6] = tested on: Enterococcus faecium ATCC 700221 (VRE); experiment: Broth microdilution MIC, E. faecium ATCC 700221 (VRE); set-up: MIC E. faecium ATCC 700221 (VRE): unit: ug/mL; conditions: broth microdilution, 37° C., 20 hours; for MIC: Enterococcus faecium, read-out: MIC E. faecium ATCC 700221 (VRE)
How it was run: as §1

[7] = tested on: Enterococcus faecalis ATCC 29212; experiment: Broth microdilution MIC, E. faecalis ATCC 29212; conditions: ATCC29212, broth microdilution, 37° C., 20 hours, read-out: MIC E. faecalis ATCC 29212
How it was run: as §1

SMILES | MIC [1] [µg/mL] | MIC [2] [µg/mL] | MIC [3] [µg/mL] | MIC E. coli ATCC 25922 + 4 mM EDTA [3] [µg/mL] | MIC [4] [µg/mL] | MIC [5] [µg/mL] | MIC [6] [µg/mL] | MIC [7] [µg/mL] | MIC NRS 384 (MRSA) [4] | MIC E. faecium ATCC 700221 (VRE) [6] | MIC NRS 384 (MRSA) ([4]; S. aureus NRS 384) | MIC ([4]; S. aureus NRS 384) [µg/mL]
Cn1ncc2nc(NCc3ccccc3)[nH]c(=O)c21 [Compound 3, 5-(Benzylamino)-1-methyl-1H-pyrazolo[4,3-d]pyrimidin-7(6H)-one] | 32 (≈ 125 µM) | 32 (≈ 125 µM) | > 64 | >64 | 64 (≈ 251 µM) | 32 (≈ 125 µM) | 32 (≈ 125 µM) | 64 (≈ 251 µM) | – | – | – | –
CC(CO)n1cc2nc(NCc3ccc(Cl)c(Cl)c3)[nH]c(=O)c2n1 (stereo not drawn) [Compound 225, 5-((3,4-dichlorobenzyl)amino)-2-(1-hydroxypropan-2-yl)-2H-pyrazolo[4,3-d]pyrimidin-7(6H)-one] | 64 (≈ 174 µM) | 16 (≈ 43.5 µM) | > 64 | >64 | 64 (≈ 174 µM) | 32 (≈ 86.9 µM) | 32 (≈ 86.9 µM) | 64 (≈ 174 µM) | – | – | – | –
Cl.O=c1[nH]c(NCc2ccc(Cl)c(Cl)c2)nc2cnn(CCOc3ccc(CO)nc3)c12 [Compound 174, 5-((3,4-dichlorobenzyl)amino)-1-(2-((6-(hydroxymethyl)pyridin-3-yl)oxy)ethyl)-1H-pyrazolo[4,3-d]pyrimidin-7(6H)-one hydrochloride] | 8 | 8 | > 64 | >64 | – | 2 | – | 8 | 8/8 | 2/2 | – | –
N#CCOCCn1ncc2nc(NCc3ccc(Cl)c(Cl)c3)[nH]c(=O)c21 [Compound 285, 2-(2-(5-((3,4-dichlorobenzyl)amino)-7-oxo-6,7-dihydro-1H-pyrazolo[4,3-d]pyrimidin-1-yl)ethoxy)acetonitrile] | 4 (≈ 10.2 µM) | 4 (≈ 10.2 µM) | > 64 | >64 | – | 1 (≈ 2.54 µM) | – | 4 (≈ 10.2 µM) | 4/4 | 2/2 | – | –
CP(C)(=O)CCCCn1ncc2nc(NCc3ccc(Cl)c(Cl)c3)[nH]c(=O)c21 [Compound 146, 5-((3,4-Dichlorobenzyl)amino)-1-(4-(dimethylphosphoryl)butyl)-1H-pyrazolo[4,3-d]pyrimidin-7(6H)-one] | > 64 | 32 (≈ 72.4 µM) | > 64 | >64 | > 64 | 32 (≈ 72.4 µM) | 32 (≈ 72.4 µM) | 64 (≈ 145 µM) | – | – | – | –
O=c1[nH]c(NCc2ccc(Cl)c(Cl)c2)nc2cnn(CC3CCOC3)c12 (stereo not drawn) [Compound 120, 5-((3,4-Dichlorobenzyl)amino)-1-((tetrahydrofuran-3-yl)methyl)-1H-pyrazolo[4,3-d]pyrimidin-7(6H)-one] | 2 (≈ 5.07 µM) | 4 (≈ 10.1 µM) | > 64 | >64 | 2 (≈ 5.07 µM) | 1 (≈ 2.54 µM) | 2 (≈ 5.07 µM) | 4 (≈ 10.1 µM) | – | – | – | –
COc1ccc(Cn2ncc3nc(NCc4ccc(Cl)c(Cl)c4)[nH]c(=O)c32)cc1OC [Compound 190, 5-((3,4-Dichlorobenzyl)amino)-1-(3,4-dimethoxybenzyl)-1H-pyrazolo[4,3-d]pyrimidin-7(6H)-one] | > 64 | > 64 | > 64 | >64 | > 64 | > 64 | > 64 | > 64 | – | – | – | –
CNCCn1ncc2nc(NCc3ccc(Cl)c(Cl)c3)[nH]c(=O)c21 [Compound 61, 5-((3,4-Dichlorobenzyl)amino)-1-(2-(methylamino)ethyl)-1H-pyrazolo[4,3-d]pyrimidin-7(6H)-one] | 64 (≈ 174 µM) | 16 (≈ 43.6 µM) | > 64 | >64 | 64 (≈ 174 µM) | 8 (≈ 21.8 µM) | 16 (≈ 43.6 µM) | 32 (≈ 87.1 µM) | – | – | – | –
Cn1nc(C#N)c2nc(NCc3ccc(Cl)c(Cl)c3)[nH]c(=O)c21 [Compound 45, 5-((3,4-dichlorobenzyl)amino)-1-methyl-7-oxo-6,7-dihydro-1H-pyrazolo[4,3-d]pyrimidine-3-carbonitrile] | 4 (≈ 11.5 µM) | 16 (≈ 45.8 µM) | > 64 | 64 | – | 2 (≈ 5.73 µM) | – | 4 (≈ 11.5 µM) | 4/4 | 2/2 | – | –
Cl.O=C(c1ccncc1)N1CCC(n2ncc3nc(NCc4ccc(Cl)c(Cl)c4)[nH]c(=O)c32)CC1 [Compound 252, 5-((3,4-dichlorobenzyl)amino)-1-(1-isonicotinoylpiperidin-4-yl)-1H-pyrazolo[4,3-d]pyrimidin-7(6H)-one hydrochloride] | 4 | 2 | > 64 | >64 | 4 | 1 | 2 | 4 | – | – | – | –
O=c1[nH]c(NCc2ccc(Cl)c(Cl)c2)nc2cnn(C3CCOC3)c12 (stereo not drawn) [Compound 119, 5-((3,4-Dichlorobenzyl)amino)-1-(tetrahydrofuran-3-yl)-1H-pyrazolo[4,3-d]pyrimidin-7(6H)-one] | 2 (≈ 5.26 µM) | 4 (≈ 10.5 µM) | > 64 | >64 | 4 (≈ 10.5 µM) | 1 (≈ 2.63 µM) | 2 (≈ 5.26 µM) | 4 (≈ 10.5 µM) | – | – | – | –
CSCOCCOCCn1ncc2nc(NCc3ccc(Cl)c(Cl)c3)[nH]c(=O)c21 [Compound 300, 5-[(3,4-dichlorophenyl)methylamino]-1-[2-[2-(methylsulfanylmethoxy)ethoxy]ethyl]-6H-pyrazolo[4,3-d]pyrimidin-7-one] | 4 (≈ 8.73 µM) | 4 (≈ 8.73 µM) | > 64 | >64 | – | 1 (≈ 2.18 µM) | – | 8 (≈ 17.5 µM) | – | 2/4 | 4/4 | –
Cn1ncc2nc(NCc3cnco3)[nH]c(=O)c21 [Compound 21, 1-Methyl-5-((oxazol-5-ylmethyl)amino)-1H-pyrazolo[4,3-d]pyrimidin-7(6H)-one] | > 64 | > 64 | > 64 | >64 | > 64 | > 64 | > 64 | > 64 | – | – | – | –
Cl.O=c1[nH]c(NCc2ccc(Cl)c(Cl)c2)nc2cnn(Cc3cnccn3)c12 [Compound 112, 5-((3,4-Dichlorobenzyl)amino)-1-(pyrazin-2-ylmethyl)-1H-pyrazolo[4,3-d]pyrimidin-7(6H)-one hydrochloride] | 4 | 4 | > 64 | >64 | – | 1 | – | 8 | 4/4 | 2/2 | – | –
O=C(c1cccnc1)N1CCC(n2nc(F)c3nc(NCc4ccc(Cl)c(Cl)c4)[nH]c(=O)c32)CC1 [Compound 317, 5-[(3,4-Dichlorophenyl)methylamino]-3-fluoro-1-[1-(pyridine-3-carbonyl)-4-piperidyl]-6H-pyrazolo[4,3-d]pyrimidin-7-one] | 4 (≈ 7.75 µM) | 4 (≈ 7.75 µM) | > 64 | >64 | – | 1 (≈ 1.94 µM) | 2 (≈ 3.87 µM) | 4 (≈ 7.75 µM) | – | – | – | 4 (≈ 7.75 µM)
